Earlier results, collected in patent publication US6423847B1, “Synthesis and clinical uses of D,α-tocopherol nicotinate compounds” (Chronorx, LLC, priority 1999, dated 2002).
Like-named read-outs stand apart in the source and are kept apart here.

Legend:
[1] = tested on: exogenous glucose utilization by the heart; details: normal volunteers, 18F-fluorodeoxyglucose PET
[2] = laboratory mice
[3] = tested on: liver NAD+; poly(ADP-ribose)
[4] = tested on: malonyldialdehyde and superoxide anion levels; details: 400 mg once a day, orally for 4 weeks
[5] = tested on: glutathione peroxidase (GSHPx); details: following supplementation with DAT
[6] = tested on: human aortic endothelial cells; details: human aortic endothelial cells pre-incubated with vitamin E, oxidative stress; increased from 37%

SMILES: O=C(O)c1cccnc1 [Nicotinic acid, nicotinic acid]
- increase in exogenous glucose utilization by the heart [1]: two- to three-fold increase
- increase in Zn+2 absorption ([2]; fasting states): 38.9%
- increase in Zn+2 absorption ([2]; postprandial conditions): 70.9%

SMILES: NC(=O)c1cccnc1 [nicotinamide]
- liver polyADP-ribose ([3]; above control groups): significantly elevates
- liver NAD+ ([3]; at 1000 mg/kg): elevations

SMILES: Cc1c(C)c2c(c(C)c1O)CC[C@@](C)(CCC[C@H](C)CCC[C@H](C)CCCC(C)C)O2 [vitamin E, D,α-tocopherol]
- malonyldialdehyde levels [4]: significantly reduces
- superoxide anion levels [4]: significantly reduces
- glutathione peroxidase (GSHPx) activities [5]: increase as much as twofold
- cell viability [6]: 85%
